Measured values as given in patent US7687643B2, “Process for preparing 3,3-dimethylindolines” (Amgen Inc., priority 2001, dated 2010).

test system: Human Umbilical Vein Endothelial cells (VEGF-stimulated); test: HUVEC proliferation assay, VEGF-stimulated; type: cell-based; settings: VEGF 50 ng/mL, 72 h, CyQuant, read-out: inhibited VEGF-stimulated HUVEC proliferation at a level
Procedure, shortened: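 Pooled-donor HUVECs (passage 2–3) seeded in DMEM+10% FBS for 22 h, then pre-treated 2–3 h with five-point, five-fold compound dilutions (0.25% DMSO final). Stimulated with 50 ng/mL VEGF (bFGF 20 ng/mL on separate plates) for 72 h at 37 °C. CyQuant fluorescence (485/530 nm) after freeze-thaw; IC50 from 4-parameter fit.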

| Structure (SMILES) | IC50 |
| --- | --- |
| CC1(C)CN(C[C@@H]2CCCN2)c2cc(NC(=O)c3cccnc3NCc3ccncc3)ccc21 [Example 1176, N-(3,3-Dimethyl-1-pyrrolidin-(2S)-ylmethyl-2,3-dihydro-1H-indol-6-yl)-2-[(pyridin-4-ylmethyl)-amino]-nicotinamide] | < 50 nM |
| COc1cc(CNc2ncccc2C(=O)Nc2ccc3c(c2)CNCC3(C)C)ccn1 [Example 1177, N-(4,4-Dimethyl-1,2,3,4-tetrahydro-isoquinolin-7-yl)-2-[(2-methoxy-pyridin-4-ylmethyl)-amino]-nicotinamide] | < 50 nM |
| CN1CC(C)(C)c2ccc(NC(=O)c3cccnc3NCc3ccncc3)cc21 [Example 1184, 2-[(Pyridin-4-ylmethyl)-amino]-N-(1,3,3-trimethyl-2,3-dihydro-1H-indol-6-yl)-nicotinamide] | < 50 nM |
| CC1(C)CNCc2cc(NC(=O)c3cccnc3NCc3ccnc4ccccc34)ccc21 [Example 1192, N-(4,4-Dimethyl-1,2,3,4-tetrahydro-isoquinolin-7-yl)-2-[(quinolin-4-ylmethyl)-amino]-nicotinamide] | < 50 nM |
| CNc1cc(CNc2ncccc2C(=O)Nc2ccc3c(c2)NCCC3(C)C)ccn1 [Example 1194] | < 50 nM |
